Source: ChEMBL document CHEMBL1150369, “Conformation-opioid activity relationships of bicyclic guanidines from 3D similarity analysis” (Bioorg Med Chem, 2008)
pIC50: −log10 of the molar value.

molecular target: Kappa-type opioid receptor (Cavia porcellus, UniProt P41144); test: Displacement of [3H]U69593 from kappa opioid receptor in guinea pig brain homogenate; format: tissue-based
Sequence (P41144 whole entry): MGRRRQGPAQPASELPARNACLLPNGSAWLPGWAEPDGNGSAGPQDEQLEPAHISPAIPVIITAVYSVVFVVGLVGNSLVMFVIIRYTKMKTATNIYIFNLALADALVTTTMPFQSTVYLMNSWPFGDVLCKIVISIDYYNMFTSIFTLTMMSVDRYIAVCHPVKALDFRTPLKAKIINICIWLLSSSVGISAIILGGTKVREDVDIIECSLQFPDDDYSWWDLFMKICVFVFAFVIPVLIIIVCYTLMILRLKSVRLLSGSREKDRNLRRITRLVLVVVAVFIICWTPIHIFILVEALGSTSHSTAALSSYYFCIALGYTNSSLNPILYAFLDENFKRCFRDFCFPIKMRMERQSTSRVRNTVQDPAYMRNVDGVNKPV

Row | Compound | pIC50
1 | CCOc1ccc(C[C@@H]2CN3C(=NC[C@@H]3CC)N2CCC2CC3CCC2C3)cc1 (stereo not given in full) | 6.49
2 | C[C@H]1CN2C(=NC[C@@H]2C)N1CCC12CC3CC(CC(C3)C1)C2 | < 5.00
3 | COc1ccc(C[C@H]2CN3C(=NC[C@@H]3C)N2CCC23CC4CC(CC(C4)C2)C3)cc1 | 5.81
4 | C1CCC([C@H]2CN3C(=NC[C@@H]3C3CCCCC3)N2CCC2CC3CCC2C3)CC1 (stereo not given in full) | 6.25
5 | CCC[C@H]1CN=C2N(CC3CCC3)[C@@H](Cc3ccc(OC)cc3)CN21 | < 5.00
6 | CCOc1ccc(C[C@@H]2CN3C(=NC[C@@H]3C)N2CCC2CC3CCC2C3)cc1 (stereo not given in full) | 6.73
7 | CCOc1ccc(C[C@@H]2CN3C(=NC[C@@H]3C)N2CCC23CC4CC(CC(C4)C2)C3)cc1 | 6.82
8 | C1CCC([C@H]2CN3C(=NC[C@H]3C3CCCCC3)N2CCC2CC3CCC2C3)CC1 (stereo not given in full) | 6.28
9 | CC(C)C[C@@H]1CN2C(=NC[C@H]2C2CCCCC2)N1CC1CCC(C)CC1 (stereo not given in full) | 6.13
10 | CCCC[C@@H]1CN=C2N(CCC3CC4CCC3C4)[C@H](Cc3ccc(OC)cc3)CN21 (stereo not given in full) | 6.37
11 | CC(C)C[C@@H]1CN2C(=NC[C@@H]2C2CCCCC2)N1CC1CCC(C)CC1 (stereo not given in full) | 6.00
12 | CCC[C@H]1CN=C2N(CC3CCC3)[C@H](Cc3ccc(OC)cc3)CN21 | < 5.00

Continued, values first:

Row | pIC50 | Compound
13 | < 5.00 | CC(C)C[C@H]1CN2C(=NC[C@@H]2C)N1CCCC1CCCCC1
14 | 5.64 | CC(C)C[C@@H]1CN2C(=NC[C@@H]2C)N1CCC1CC2CCC1C2 (stereo not given in full)
15 | 5.92 | CC(C)C[C@@H]1CN2C(=NC[C@@H]2C2CCCCC2)N1CCC12CC3CC(CC(C3)C1)C2
16 | 6.34 | COc1ccc(C[C@@H]2CN3C(=NC[C@H]3CC3CCCCC3)N2CCC23CC4CC(CC(C4)C2)C3)cc1
17 | 5.44 | CC(C)C[C@@H]1CN2C(=NC[C@@H]2C)N1CCC12CC3CC(CC(C3)C1)C2
18 | < 5.00 | COc1ccc(C[C@@H]2CN3C(=NC[C@H]3C3CCCCC3)N2CCC23CC4CC(CC(C4)C2)C3)cc1
19 | 5.76 | CC(C)C[C@@H]1CN2C(=NC[C@H]2C2CCCCC2)N1CCC12CC3CC(CC(C3)C1)C2
20 | 5.31 | COc1ccc(C[C@H]2CN3C(=NC[C@@H]3C3CCCCC3)N2CCC23CC4CC(CC(C4)C2)C3)cc1
21 | < 5.00 | COc1ccc(C[C@@H]2CN3C(=NC[C@@H]3C3CCCCC3)N2CCC23CC4CC(CC(C4)C2)C3)cc1
22 | 5.71 | C[C@H]1CN=C2N(CCC34CC5CC(CC(C5)C3)C4)[C@@H](C3CCCCC3)CN21
23 | 5.83 | C1CCC([C@H]2CN3C(=NC[C@@H]3C3CCCCC3)N2CCC23CC4CC(CC(C4)C2)C3)CC1
24 | 5.43 | CC(C)C[C@@H]1CN2C(=NC[C@@H]2C2CCCCC2)N1CCCC1CCCCC1
25 | 5.26 | CC(C)C[C@@H]1CN2C(=NC[C@@H]2C)N1CCCC1CCCCC1
26 | < 5.00 | CC(C)[C@H]1CN2C(=NC[C@@H]2C)N1CCCCC1CCCCC1
27 | 5.75 | CC(C)C[C@@H]1CN2C(=NC[C@H]2C2CCCCC2)N1CCCC1CCCCC1
28 | < 5.00 | C1CCC([C@H]2CN3C(=NC[C@H]3C3CCCCC3)N2CCC23CC4CC(CC(C4)C2)C3)CC1
29 | 5.30 | CC1CCC(CN2C3=NC[C@H](C)N3C[C@@H]2C2CCCCC2)CC1 (stereo not given in full)
30 | < 5.00 | COc1ccc(C[C@H]2CN3C(=NC[C@@H]3C(C)C)N2CC2CCCC2)cc1
31 | < 5.00 | COc1ccc(C[C@H]2CN3C(=NC[C@H]3CC3CCCCC3)N2CC2CCCC2)cc1

molecular target: Mu-type opioid receptor (Homo sapiens, UniProt P35372); test: Binding affinity at mu opioid receptor
Sequence (P35372 whole entry): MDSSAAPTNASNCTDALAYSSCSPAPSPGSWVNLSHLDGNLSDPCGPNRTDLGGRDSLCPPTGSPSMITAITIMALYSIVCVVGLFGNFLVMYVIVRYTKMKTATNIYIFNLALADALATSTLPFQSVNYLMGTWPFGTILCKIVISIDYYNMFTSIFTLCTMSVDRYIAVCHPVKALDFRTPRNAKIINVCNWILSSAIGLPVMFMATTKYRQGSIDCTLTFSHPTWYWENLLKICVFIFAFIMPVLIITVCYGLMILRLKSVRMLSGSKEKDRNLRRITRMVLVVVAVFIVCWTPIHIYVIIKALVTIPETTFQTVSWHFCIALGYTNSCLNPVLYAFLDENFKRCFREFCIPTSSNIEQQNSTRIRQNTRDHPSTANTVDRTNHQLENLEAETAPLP

Row | Compound | pIC50
32 | COc1ccc(C[C@H]2CN3C(=NC[C@@H]3C)N2CCCC2CCCCC2)cc1 | 6.38
33 | COc1ccc(C[C@@H]2CN3C(=NC[C@@H]3C)N2CCC2CC3CCC2C3)cc1 (stereo not given in full) | 4.69

molecular target: Delta-type opioid receptor (Homo sapiens, UniProt P41143); test: Binding affinity at delta opioid receptor
Sequence (P41143 whole entry): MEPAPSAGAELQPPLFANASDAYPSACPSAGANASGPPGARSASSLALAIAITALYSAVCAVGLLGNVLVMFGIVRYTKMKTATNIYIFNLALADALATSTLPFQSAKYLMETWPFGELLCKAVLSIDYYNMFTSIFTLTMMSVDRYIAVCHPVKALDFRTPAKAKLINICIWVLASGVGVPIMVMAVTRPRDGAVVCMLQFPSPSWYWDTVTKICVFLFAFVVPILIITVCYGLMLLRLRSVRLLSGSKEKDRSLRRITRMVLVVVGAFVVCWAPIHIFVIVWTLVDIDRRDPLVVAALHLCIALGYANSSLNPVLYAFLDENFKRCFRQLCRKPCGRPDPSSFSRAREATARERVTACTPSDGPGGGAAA

Row | Compound | pIC50
34 | COc1ccc(C[C@H]2CN3C(=NC[C@@H]3C)N2CCCC2CCCCC2)cc1 | 5.26
35 | COc1ccc(C[C@@H]2CN3C(=NC[C@@H]3C)N2CCC2CC3CCC2C3)cc1 (stereo not given in full) | 5.68
